Laboratory results taken from patent US4273704A, “N-Adamantane-substituted tetrapeptide amides” (G. D. Searle & Co., priority 1979, dated 1981).

System: phenyl-p-benzoquinone-induced writhing
Experiment: mouse phenyl-p-benzoquinone-induced writhing test (analgesic activity)
Type: in vivo
Conditions: s.c.; 60 minutes; male CD-1 mice; dose which decreased writhing by ≥50% of control mean in 50% of the mice
Method: This test is a modification of the procedure described by L. C. Hendershot and J. Forsaith, in J. PHARMACOL. EXP. THER., 125:237(1959).
Details of the test are as follows: Groups of 10 male CD-1 mice (Charles River) weighing 18-25 g. are pretreated subcutaneously (s.c.) or intragastrically (i.g.) with the vehicle control or the compound of interest in a volume of 10 ml/kg. Phenyl-p-benzoquinone (PBQ), 2.5 mg/kg is administered intraperitoneally (i.p.) 30 or 60 minutes later as a 0.025% solution in 5% ethanol. Starting 5 minutes after the PBQ challenge, each mouse is observed for a 10 minute period during which the number of writhes are counted. A "writhe" consists of a combination or sequence of arching the back, pelvic rotation, and hind limb extension. Significant analgesia is assumed when an animal writhing frequency is ≤50% of the daily control group mean. Estimates of the ED50 defined as the dose which decreased writhing by ≥50% of the control group mean in 50% of the mice are determined using the method of J. T. Litchfield and F. Wilcoxon, J. PHARMCOL. EXP. THER., 96:99(1949).

CN1CC[C@]23c4c5ccc(O)c4O[C@H]2[C@@H](O)C=C[C@H]3[C@H]1C5 [morphine]
ED50 (95% confidence limits): 0.1 mpk
